Data: paper PMC5735979, “Total Coumarins from Hydrangea paniculata Show Renal Protective Effects in Lipopolysaccharide-Induced Acute Kidney Injury via Anti-inflammatory and Antioxidant Activities” (Frontiers in Pharmacology, 2017)

Assays:
Assay type in all cases: in vivo, C57BL/6 mice
[1] = Pharmacokinetics study after single oral dose of HP; details: for Blood drug concentration: 12 h after single oral dose of 50 mg/kg HP; for Blood drug concentration / concentration at 0.08 h / concentration at 0.25 h / concentration at 0.5 h / concentration at 1 h / concentration at 1.5 h / concentration at 2 h / concentration at 3 h / concentration at 4 h / concentration at 8 h / half-life / AUC(0-inf) / AUC(0-t) / Cmax / Tmax / MRT last / MRT inf: mice, n = 5; for Blood drug concentration / concentration at 0.08 h / concentration at 0.25 h / concentration at 0.5 h / concentration at 1 h / concentration at 1.5 h / concentration at 2 h / concentration at 3 h / concentration at 4 h / concentration at 8 h: mean ± SD; for concentration at 0.08 h / concentration at 0.25 h / concentration at 0.5 h / concentration at 1 h / concentration at 1.5 h / concentration at 2 h / concentration at 3 h / concentration at 4 h / concentration at 8 h / half-life / AUC(0-inf) / AUC(0-t) / Cmax / Tmax / MRT last / MRT inf: male, C57BL/6, mouse, plasma; for concentration at 0.08 h: 0.08 h after single oral dose of 50 mg/kg HP; for concentration at 0.08 h / concentration at 0.25 h / concentration at 0.5 h / concentration at 1 h / concentration at 1.5 h / concentration at 2 h / concentration at 3 h / concentration at 4 h / concentration at 8 h: read-out: Blood drug concentration; for concentration at 0.25 h: 0.25 h after single oral dose of 50 mg/kg HP; for concentration at 0.5 h: 0.5 h after single oral dose of 50 mg/kg HP; for concentration at 1 h: 1 h after single oral dose of 50 mg/kg HP; for concentration at 1.5 h: 1.5 h after single oral dose of 50 mg/kg HP; for concentration at 2 h: 2 h after single oral dose of 50 mg/kg HP; for concentration at 3 h: 3 h after single oral dose of 50 mg/kg HP; for concentration at 4 h: 4 h after single oral dose of 50 mg/kg HP; for concentration at 8 h: 8 h after single oral dose of 50 mg/kg HP; for half-life: elimination half-life; for half-life / AUC(0-inf) / AUC(0-t) / Cmax / Tmax / MRT last / MRT inf: single oral dose of 50 mg/kg HP; for MRT last: read-out: MRT(0−t); for MRT inf: read-out: MRT(0−∞)
Protocol: All of the animals were fasted for 12 h before receiving HP and were then allowed to eat for 4 h after administration. The dosing solutions used for the animal studies were prepared by dissolving the required amounts of HP in distilled water. […] The plasma was separated and stored at 2–8°C until analysis. […] Louis, MO, USA) and then mixed with 180 μL of acetonitrile (Merck, Darmstadt, Germany) to precipitate protein. After centrifugation, aliquots (10 μL each) of the supernatant were used for analysis. […] The mobile phase consisted of solvent A [0.1% formic acid (Dikma Technologies, Inc., CA, USA) in water] and solvent B [0.1% formic acid in methanol (Merck)]. The analytes were eluted at a flow rate of 0.2 mL/min, with the following gradient elution: from 0 to 0.6 min, 20% B; linear increase to 95% B in 0.2 min; 95% B for 4 min, decrease to 20% B in 0.2 min; and stabilization at initial conditions for 6 min. The mass spectrometer was set for multiple reaction monitoring and was operated in a positive-ion mode with an electrospray ionization source. Nitrogen was used as the curtain gas and the collision gas. The ion-spray voltage was set at 5,500 V, and the gas temperature at 500°C.

[2] = system: macrophages and neutrophils in kidneys; experiment: Flow cytometric determination of kidney leukocytes; details: LPS-induced AKI mice, flow cytometry, N = 8
Protocol: To determine the effect of HP on leukocyte populations in septic kidneys, kidney single-cell suspensions were prepared and analyzed. Briefly, the single-cell suspensions were first incubated with anti-mouse CD45-APC-Cy7 antibody (eBioscience, USA) for 30 min on ice. After washing, the cells were stained for 15 min on ice with fluorochrome-labeled monoclonal antibodies against anti-mouse Ly6G-PE, CD11c-FITC, or F4/80-APC (eBioscience, USA) for detection of neutrophils or macrophages. Six-color fluorescence flow cytometric analyses were performed (FACS Verse, BD, USA), and the data were analyzed with the FlowJo program (Tree Star, Inc., Ashland, CA, USA).

[3] = system: peripheral blood leukocytes; experiment: Peripheral blood leukocyte counts after LPS injection; details: LPS i.p. injection
Protocol: To understand the effect of HP on peripheral leukocytes in LPS-induced septic mice, peripheral […] was collected in heparin pretreated tubes by retro-orbital bleeding at 4, 8, 12, 24, and 48 h post-LPS injection, and the number of monocytes, lymphocytes, and neutrophils in the […] at different time points was examined by an Automatic Hematology Analyzer (Celltac E MEK-7222, Nihon Kohden, Japan). The detailed experimental procedure is shown in Figure 1C, which is similar to that used to analyze the effect of HP treatment on LPS-induced AKI.

[4] = system: caspase 3, 7, 8, 9 in kidney tissue; experiment: Tubular cell apoptosis and caspases in LPS-challenged kidneys (IHC, RT-qPCR, western blot); details: MMF 10 mg/kg; magnitude less than HP at 40 mg/kg
Protocol: LPS from Escherichia coli 0111:B4 was purchased from Sigma-Aldrich (St. Louis, MO, USA), and freshly dissolved in sterile 0.9% NaCl solution buffer before i.p. injection. For the standard treatment experiment, low dosage of LPS was used for induction of kidney injury. Inbred, 16–18 g, 4–6-week-old, male C57BL/6 mice were purchased from the SPF Biotechnology Co. Ltd. (Beijing, China). The sham group received 10 mL/kg saline by oral gavagedaily during the experiment, and at day 3 received a saline sham injection (i.p.). The LPS model group was exposed to the same procedure as the sham group, except receiving an LPS (20 mg/kg) injection (i.p.) at day 3, instead of saline. […]
For cleaved caspase 3 immunohistochemical analysis, the endogenous peroxidase activity in each section was quenched with 3% H2O2. […] Labelling was detected with a biotin-conjugated goat anti-rabbit IgG and avidin-biotin peroxidase complex. Cleaved caspase-3-positive cells in cortexes were scored in 30 random × 400 high-power fields (HPFs) with a ZEISS Observer A1 microscope (ZEISS, Germany).
The mRNA levels of selected important chemokines and cytokines in the kidneys, such as TNF-α, IL-1β, IL-6, intercellular adhesion molecule 1 (ICAM-1), vascular cell adhesion molecule 1 (VCAM-1), and MCP-1, as well as caspase family members, such as caspase 3, caspase 7, caspase 8, and caspase 9, were quantified by RT-qPCR. […]

| Structure (SMILES) | Blood drug concentration [1] | concentration at 0.08 h [1] [nM] | concentration at 0.25 h [1] [nM] | concentration at 0.5 h [1] [nM] | concentration at 1 h [1] [nM] | concentration at 1.5 h [1] [nM] | concentration at 2 h [1] [nM] | concentration at 3 h [1] [nM] | concentration at 4 h [1] [nM] | concentration at 8 h [1] [nM] | half-life [1] [h] | AUC(0-inf) [1] [µM·h] | AUC(0-t) [1] [µM·h] | Cmax [1] [nM] | Tmax [1] [h] | MRT last [1] [h] | MRT inf [1] [h] | further results |
| --- | --- | --- | --- | --- | --- | --- | --- | --- | --- | --- | --- | --- | --- | --- | --- | --- | --- | --- |
| O=c1ccc2cc(O)c(O)cc2o1 [Esculetin, esculetin] | Not detectable | 980 ± 800 | 2980 ± 1240 | 3000 ± 1050 | 2240 ± 400 | 2250 ± 1590 | 650 ± 220 | 680 ± 880 | 300 ± 160 | 120 ± 10 | 2.3 | 6.66 | 6.27 | 3000 | 0.5 | 1.82 | 2.38 |  |
| COc1c(C)c2c(c(O)c1C/C=C(\C)CCC(=O)OCCN1CCOCC1)C(=O)OC2 [MMF, Mycophenolate mofetil] |  |  |  |  |  |  |  |  |  |  |  |  |  |  |  |  |  | infiltration of CD45+ F4/80+ CD11c+ macrophages and CD45+Ly6G+ neutrophils into kidneys [2]: produced similar inhibitory results; peripheral blood monocytes at 48 h after LPS ([3]; HP 40 mg/kg, MMF 10 mg/kg, N = 8): significantly reduced peripheral blood monocytes; peripheral blood counts within the first 24 h after LPS ([3]; data not shown): did not change the peripheral blood counts; tubular apoptosis in LPS-induced AKI [4]: ameliorated tubular apoptosis |
| O=c1ccc2ccc(O)cc2o1 [Umbelliferone, umbelliferone] | Not detectable | 4210 ± 2210 | 9120 ± 3280 | 7350 ± 2040 | 3360 ± 760 | 2060 ± 790 | 1450 ± 790 | 1100 ± 1300 | 590 ± 170 | 140 ± 140 | 1.69 | 12.2 | 11.8 | 9120 | 0.25 | 1.58 | 1.82 |  |
| O=c1ccc2ccc(O[C@@H]3O[C@H](CO[C@@H]4OC[C@](O)(CO)[C@H]4O)[C@@H](O)[C@H](O)[C@H]3O)cc2o1 [apiosylskimmin] |  |  |  |  |  |  |  |  |  |  |  |  |  |  |  |  |  | concentration of plasma apiosylskimmin ([1]; mouse, in vivo, po, 50 mg/kg): too low to be determined |
